# *1 amine or outer side, *2 acyl side, *3 side chain or, on linkers, in order; H or OH if unused. Where a SMILES comes first, the peptide text is derived from it. Bridges are numbered along the chain shown (N, C = ends). [ ]: non-standard residue; d: D form. The star is where a group is joined. ξ: configuration not given here. Phe(4-COOH) = N[C@@H](Cc1ccc(C(=O)O)cc1)C(=O)O; Bip = N[C@@H](Cc1ccc(-c2ccccc2)cc1)C(=O)O; Phe(3-Me) = Cc1cccc(C[C@H](N)C(=O)O)c1; γGlu = O=C(O)[C@H](CCC(=O)[*:2])N[*:1]; aIle = CC[C@@H](C)[C@H](N)C(=O)O; 4Pal = N[C@@H](Cc1ccncc1)C(=O)O; Cha = N[C@@H](CC1CCCCC1)C(=O)O; Cit = NC(=O)NCCC[C@H](N)C(=O)O; Thr(3ξ) = CC(O)[C@H](N)C(=O)O; Chg = N[C@H](C(=O)O)C1CCCCC1; NMeNle = CCCC[C@H](NC)C(=O)O; 12Ado = NCCCCCCCCCCCC(=O)O; hSer = N[C@@H](CCO)C(=O)O; Carboxymethyl = O=C(O)C*; NMeA = CN[C@@H](C)C(=O)O; Orn = NCCC[C@H](N)C(=O)O; dDap = NC[C@@H](N)C(=O)O; Aun = NCCCCCCCCCCC(=O)O; Dab = NCC[C@H](N)C(=O)O; Dap = NC[C@H](N)C(=O)O; AEEA = NCCOCCOCC(=O)O; Sar = CNCC(=O)O
# Biological target: T1, PD-1/PD-L1 interaction (PE-labeled human PD-L1-Ig binding to Jurkat cell line over-expressing human PD-1) (Homo sapiens, UniProt Q15116)
# T1 construct: expressed in transfected cells; host or cells: Jurkat
# Assay: Jurkat-PD-1 Cell Binding High-Content Screening Assay (CBA)
# Details: Jurkat-hPD-1 cells, PE-labeled PD-L1-Ig 20 nM final; read-out: Jurkat HPD1 PDL1 IC50
# In short: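 Cells 8×10^3/well, DMEM + 10% FCS; cpd 2 h, 37 °C; PE–PD-L1-Ig 20 nM final, 1 h; PFA fix + Hoechst 33342, 3× dPBS wash; high-content imager.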
# T1 sequence (Q15116 25-288): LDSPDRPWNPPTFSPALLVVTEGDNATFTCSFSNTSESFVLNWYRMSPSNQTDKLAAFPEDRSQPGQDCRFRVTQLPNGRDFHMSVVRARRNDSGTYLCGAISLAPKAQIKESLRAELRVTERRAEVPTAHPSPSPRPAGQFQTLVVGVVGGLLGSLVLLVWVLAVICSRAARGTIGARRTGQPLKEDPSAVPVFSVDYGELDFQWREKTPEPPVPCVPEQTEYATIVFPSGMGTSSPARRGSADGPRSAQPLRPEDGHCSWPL
row,IC50 [nM],Structure (SMILES)
1,48.9,CC[C@@H](C)[C@@H]1NC(=O)[C@H](Cc2ccc(-c3ccccc3)cc2)NC(=O)[C@H](C(C)C)NC(=O)[C@H](Cc2c[nH]c3ccccc23)NC(=O)[C@H](CC(=O)O)NC(=O)[C@H](Cc2ccc(C(=O)O)cc2)NC(=O)[C@H](Cc2ccc(OCC(=O)O)cc2)NC(=O)CSC[C@@H](C(=O)N[C@@H](CC(N)=O)C(=O)NCCOCCOCC(=O)N[C@@H](CCC(=O)NCCOCCOCC(=O)N[C@@H](CCC(=O)NCCOCCOCC(=O)N[C@@H](CCCN)C(=O)NCCCCCCCCCCC(=O)O)C(=O)O)C(=O)O)NC(=O)[C@H](CO)NC(=O)[C@H](C(C)C)NC(=O)[C@H](CC2CCCCC2)NC(=O)[C@H](CC(N)=O)NC(=O)[C@@H](CC(C)C)NC(=O)[C@H](C)N(C)C1=O [Example 2021] ({CH2CO}-Y(Carboxymethyl)[Phe(4-COOH)]DWV[Bip][aIle][NMeA][dL]N[Cha]VSCN[AEEA][γGlu][AEEA][γGlu][AEEA][Orn][Aun]-OH; thioether N-14)
2,24.4,CC(C)C[C@@H]1NC(=O)[C@H](Cc2c[nH]c3ccccc23)NC(=O)[C@H](CC(=O)O)NC(=O)[C@H](Cc2ccncc2)NC(=O)[C@H](Cc2ccc(OCC(=O)O)cc2)NC(=O)CSC[C@@H](C(=O)N[C@@H](CCCNC(N)=O)C(=O)NCCOCCOCC(=O)NCCCCCCCCCCC(=O)O)NC(=O)[C@H](CCCNC(N)=O)NC(=O)[C@H](C(C)C)NC(=O)[C@H](CC2CCCCC2)NC(=O)[C@H](CCN)NC(=O)[C@@H](CC(C)C)NC(=O)[C@H](C)N(C)C(=O)[C@H](C(C)C)NC(=O)[C@H](Cc2ccc(-c3ccccc3)cc2)NC1=O [Example 2167] ({CH2CO}-Y(Carboxymethyl)[4Pal]DWL[Bip]V[NMeA][dL][Dab][Cha]V[Cit]C[Cit][AEEA][Aun]-OH; thioether N-14)
3,111,Cc1cccc(C[C@@H]2NC(=O)[C@H](CC(=O)O)NC(=O)[C@H](Cc3ccc(C(=O)O)cc3)NC(=O)[C@H](Cc3ccc(OCC(=O)O)cc3)NC(=O)CSC[C@@H](C(=O)NCCCCCCCCCCC(=O)O)NC(=O)[C@H](CO)NC(=O)[C@H](C(C)C)NC(=O)[C@H](CC(C)C)NC(=O)[C@H](CC(N)=O)NC(=O)[C@@H](CC(C)C)NC(=O)[C@H](C)N(C)C(=O)[C@H](C(C)C)NC(=O)[C@H](Cc3ccc(-c4ccccc4)cc3)NC(=O)[C@H](CC(C)C)NC2=O)c1 [Example 1007] ({CH2CO}-Y(Carboxymethyl)[Phe(4-COOH)]D[Phe(3-Me)]L[Bip]V[NMeA][dL]NLVSC[Aun]-OH; thioether N-14)
4,334,Cc1cccc(C[C@@H]2NC(=O)[C@H](CC(=O)O)NC(=O)[C@H](Cc3ccc(OCC(=O)O)cc3)NC(=O)[C@H](C(C)O)NC(=O)CSC[C@@H](C(=O)N(C)CC(=O)NCCCCCCCCCCC(=O)O)NC(=O)[C@H](CCC(=O)O)NC(=O)[C@H](C(C)C)NC(=O)[C@H](CC3CCCCC3)NC(=O)[C@H](CCN)NC(=O)[C@@H](CC(C)C)NC(=O)[C@H](C)N(C)C(=O)[C@H](C(C)C)NC(=O)[C@H](Cc3ccc(-c4ccccc4)cc3)NC(=O)[C@H](Cc3ccc(O)cc3)NC2=O)c1 (stereo partly drawn) [Example 2263] ({CH2CO}-[Thr(3ξ)]Y(Carboxymethyl)D[Phe(3-Me)]Y[Bip]V[NMeA][dL][Dab][Cha]VEC[Sar][Aun]-OH; thioether N-14)
5,102,CCCC[C@H]1C(=O)N[C@H](CC(C)C)C(=O)N[C@@H](CCN)C(=O)N[C@@H](CC2CCCCC2)C(=O)N[C@@H](C(C)C)C(=O)N[C@@H](C(C)O)C(=O)N[C@H](C(=O)N[C@@H](CCCN)C(=O)NCCOCCOCC(=O)NCCCCCCCCCCC(=O)O)CSCC(=O)N[C@@H](Cc2ccncc2)C(=O)N[C@@H](Cc2ccc(OCC(=O)O)cc2)C(=O)N[C@@H](CC(=O)O)C(=O)N[C@@H](Cc2c[nH]c3ccccc23)C(=O)N[C@@H](C(C)C)C(=O)N[C@@H](Cc2ccc(-c3ccccc3)cc2)C(=O)N[C@@H](CC(C)C)C(=O)N1C (stereo partly drawn) [Example 2114] ({CH2CO}-[4Pal]Y(Carboxymethyl)DWV[Bip]L[NMeNle][dL][Dab][Cha]V[Thr(3ξ)]C[Orn][AEEA][Aun]-OH; thioether N-14)
6,38.6,CC(C)C[C@@H]1NC(=O)[C@H](Cc2c[nH]c3ccccc23)NC(=O)[C@H](CC(=O)O)NC(=O)[C@H](Cc2ccc(C(=O)O)cc2)NC(=O)[C@H](Cc2ccc(OCC(=O)O)cc2)NC(=O)CSC[C@@H](C(=O)NCCOCCOCC(=O)NCCCCCCCCCCC(=O)O)NC(=O)[C@H](CCO)NC(=O)[C@H](C(C)C)NC(=O)[C@H](CC2CCCCC2)NC(=O)[C@H](CCN)NC(=O)[C@@H](CC(C)C)NC(=O)[C@H](C)N(C)C(=O)[C@H](CCC(N)=O)NC(=O)[C@H](Cc2ccc(-c3ccccc3)cc2)NC1=O [Example 2244] ({CH2CO}-Y(Carboxymethyl)[Phe(4-COOH)]DWL[Bip]Q[NMeA][dL][Dab][Cha]V[hSer]C[AEEA][Aun]-OH; thioether N-14)
7,231,CC(=O)NCCCC[C@@H]1NC(=O)[C@H](C(C)C)NC(=O)[C@H](CC2CCCCC2)NC(=O)[C@H](CCN)NC(=O)[C@@H](CC(C)C)NC(=O)[C@H](C)N(C)C(=O)[C@H](Cc2ccc(O)cc2)NC(=O)[C@H](Cc2ccc(-c3ccccc3)cc2)NC(=O)[C@H](C(C)C)NC(=O)[C@H](Cc2cccc(C)c2)NC(=O)[C@H](CC(=O)O)NC(=O)[C@H](Cc2ccc(OCC(=O)O)cc2)NC(=O)[C@H](Cc2cnc[nH]2)NC(=O)CSC[C@@H](C(=O)N(C)CC(=O)NCCCCCCCCCCC(=O)O)NC1=O [Example 2272] ({CH2CO}-HY(Carboxymethyl)D[Phe(3-Me)]V[Bip]Y[NMeA][dL][Dab][Cha]VK(Ac)C[Sar][Aun]-OH; thioether N-14)
8,74.1,CC[C@@H](C)[C@@H]1NC(=O)[C@H](Cc2ccc(-c3ccccc3)cc2)NC(=O)[C@H](C(C)C)NC(=O)[C@H](Cc2c[nH]c3ccccc23)NC(=O)[C@H](CC(=O)O)NC(=O)[C@H](Cc2ccc(OCC(=O)O)cc2)NC(=O)[C@H](Cc2ccncc2)NC(=O)CSC[C@@H](C(=O)N[C@H](CN)C(=O)NCCOCCOCC(=O)N[C@@H](CCC(=O)NCCOCCOCC(=O)N[C@@H](CCC(=O)NCCOCCOCC(=O)N[C@@H](CCCN)C(=O)NCCCCCCCCCCC(=O)O)C(=O)O)C(=O)O)NC(=O)[C@H](Cc2c[nH]cn2)NC(=O)[C@H](C(C)C)NC(=O)[C@H](CC2CCCCC2)NC(=O)[C@H](CC(N)=O)NC(=O)[C@@H](CC(C)C)NC(=O)[C@H](C)N(C)C1=O [Example 2013] ({CH2CO}-[4Pal]Y(Carboxymethyl)DWV[Bip][aIle][NMeA][dL]N[Cha]VHC[dDap][AEEA][γGlu][AEEA][γGlu][AEEA][Orn][Aun]-OH; thioether N-14)
9,19,Cc1cccc(C[C@@H]2NC(=O)[C@H](CC(=O)O)NC(=O)[C@H](Cc3ccc(OCC(=O)O)cc3)NC(=O)[C@H](CN)NC(=O)CSC[C@@H](C(=O)N[C@@H](CCN)C(=O)NCCCCCCCCCCC(=O)O)NC(=O)[C@H]([C@@H](C)O)NC(=O)[C@H](C(C)C)NC(=O)[C@H](CC3CCCCC3)NC(=O)[C@H](CCN)NC(=O)[C@@H](CC(C)C)NC(=O)[C@H](C)N(C)C(=O)[C@H](Cc3ccc(O)cc3)NC(=O)[C@H](Cc3ccc(-c4ccccc4)cc3)NC(=O)[C@H](Cc3ccc(OCC(=O)O)cc3)NC2=O)c1 [Example 1258] ({CH2CO}-[Dap]Y(Carboxymethyl)D[Phe(3-Me)]Y(Carboxymethyl)[Bip]Y[NMeA][dL][Dab][Cha]VTC[Dab][Aun]-OH; thioether N-14)
10,48.2,CC(C)C[C@H]1NC(=O)[C@H](C)N(C)C(=O)[C@H](C(C)C)NC(=O)[C@H](Cc2ccc(-c3ccccc3)cc2)NC(=O)[C@H](C2CCCCC2)NC(=O)[C@H](Cc2c[nH]c3ccccc23)NC(=O)[C@H](CC(=O)O)NC(=O)[C@H](Cc2ccc(OCC(=O)O)cc2)NC(=O)[C@H](Cc2ccncc2)NC(=O)CSC[C@@H](C(=O)N[C@@H](CCCCN)C(=O)NCCOCCOCC(=O)NCCCCCCCCCCC(=O)O)NC(=O)[C@H](CO)NC(=O)[C@H](C(C)C)NC(=O)[C@H](CC2CCCCC2)NC(=O)[C@H](CC(=O)O)NC1=O [Example 2090] ({CH2CO}-[4Pal]Y(Carboxymethyl)DW[Chg][Bip]V[NMeA][dL]D[Cha]VSCK[AEEA][Aun]-OH; thioether N-14)

# Same assay, conditions: PE-labeled PD-L1-Ig 20 nM final, Jurkat-hPD-1 cells; read-out: Jurkat HPD1 PDL1 IC50
row,IC50 [nM],Structure (SMILES)
1,12.2,Cc1cccc(C[C@@H]2NC(=O)[C@H](CC(=O)O)NC(=O)[C@H](Cc3ccc(OCC(=O)O)cc3)NC(=O)[C@H]([C@@H](C)O)NC(=O)CSC[C@@H](C(=O)N[C@@H](CCN)C(=O)NCCCCCCCCCCCC(=O)NCCCCCCCCCCC(=O)O)NC(=O)[C@H](CCC(=O)O)NC(=O)[C@H](C(C)C)NC(=O)[C@H](CC3CCCCC3)NC(=O)[C@H](CCN)NC(=O)[C@@H](CC(C)C)NC(=O)[C@H](C)N(C)C(=O)[C@H](Cc3ccc(OCC(=O)O)cc3)NC(=O)[C@H](Cc3ccc(-c4ccccc4)cc3)NC(=O)[C@H](Cc3ccc(OCC(=O)O)cc3)NC2=O)c1 [Example 2679] ({CH2CO}-TY(Carboxymethyl)D[Phe(3-Me)]Y(Carboxymethyl)[Bip]Y(Carboxymethyl)[NMeA][dL][Dab][Cha]VEC[Dab][12Ado][Aun]-OH; thioether N-14)
2,0.3,Cc1cccc(C[C@@H]2NC(=O)[C@H](CC(=O)O)NC(=O)[C@H](Cc3ccc(O)cc3)NC(=O)[C@H]([C@@H](C)O)NC(=O)CSC[C@@H](C(=O)N[C@@H](CCN)C(=O)NCCOCCOCC(=O)NCCCCCCCCCCCC(=O)O)NC(=O)[C@H](CCC(=O)O)NC(=O)[C@H](C(C)C)NC(=O)[C@H](CC3CCCCC3)NC(=O)[C@H](CCN)NC(=O)[C@@H](CC(C)C)NC(=O)[C@H](C)N(C)C(=O)[C@H](Cc3ccc(OCC(=O)O)cc3)NC(=O)[C@H](Cc3ccc(-c4ccccc4)cc3)NC(=O)[C@H](Cc3ccc(OCC(=O)O)cc3)NC2=O)c1 [Example 2667] ({CH2CO}-TYD[Phe(3-Me)]Y(Carboxymethyl)[Bip]Y(Carboxymethyl)[NMeA][dL][Dab][Cha]VEC[Dab][AEEA][12Ado]-OH; thioether N-14)

# Reference: patent publication US20260070945A1, “MACROCYCLIC IMMUNOMODULATORS” (Bristol-Myers Squibb Company, priority 2022, published 2026)
